In patent US8945540B2, “Compositions for enhancing the antibacterial activity of myeloperoxidase and methods of use thereof” (Exoxemis, Inc., priority 2008, dated 2015):
Read-outs that look alike come from different tables or passages of the source.

How the values were obtained:
[1] = system: Staphylococcus aureus; test: Microbicidal activity of the myeloperoxidase system (p-MPO, glucose oxidase, glucose) with amino acids in the presence of blood, CFU plate counts; synergy determination from these CFU; assay type: cell-based; settings: for Average Viability CFU/ml 60 min / Log Reduction 60 min / Log 10 (CFU + 1) Survivors 60 min: MPO 38 U/ml, GO 33.3 U/ml; for Average Viability CFU/ml 50 min / Log Reduction 50 min: MPO 4.7 U/ml, GO 4.2 U/ml
Method: Bacterial suspensions, specifically Staphylococcus aureus in this example, were prepared by the shake flask method to achieve late log to early stationary phase growth. Bacteria were grown 24 hours in trypticase soy broth (TSB) at 35° C. The cultures were centrifuged at 4,000 rpm for 10 minutes and the supernatants removed. The pellet was collected and washed twice with sterile 0.9% normal saline (NS). The washed microorganisms were suspended and diluted with normal saline to a 3 McFarland standard, i.e., approximately 10^9 bacteria colony forming units (CFU) per mL. Actual colony counts are confirmed by serial dilutions (10^−1 to 10^−5 or 10^−6) plated on TSA and incubated overnight at 35° C. To obtain an approximate final working target inoculum of 10^7 CFU/mL, 15 microliters of organisms per mL of final reaction mixture are used.
Glucose oxidase (GO) from Aspergillus Niger was purchased from Biozyme, Inc., UK, Cat #GO3A, 270 U/mg). Porcine Myeloperoxidase (p-MPO) (Exoxemis, Inc., Little Rock, Ark. U.S.A., 375 U/mg). Sterile stock solutions of D-glucose and sodium chloride were prepared and used at a final concentration of 150 mM each. L-Lysine hydrochloride (Spectrum Chemical Cat #L1142) was prepared as a 100 mM stock solution. Catalase (Sigma, Cat #C-40) was prepared as a 1% stock solution in sterile 0.9% normal saline. Blood was collected by venipuncture and used as whole blood within the same day.
Staphylococcus aureus were used to give a final target concentration of 2-3×10^7 CFU (7.4 log 10) per mL and venous whole blood was used to give a final concentration of 3%. Glucose was added to the reaction mixtures to a final concentration of 150 mM, which initiated the microbicidal reaction. The final volume of the reaction mixtures was 1 mL. The reactions were allowed to run from 30 minutes to 2 hours, as needed, at room temperature or at 37° C. in a dry bath. At the specified time points the reaction mixtures were treated with 100 microliters of a catalase solution, containing a minimum of 100 units/μL, to consume remaining peroxide and terminate the oxidative killing. Serial dilution plate counts were performed from the contents of each vial in sterile saline and inoculated onto trypticase soy agar (TSA) for quantitative culture. Plates were then incubated at 37° C. and counts taken at 24 hours. […] The results are shown in Table 1, as the average of 2 replicates.
The amino acids alone, in the absence of MPO were tested to rule out their microbicidal activity. The results are shown in Table 2 to Table 6, as the average of 2 replicates.
The amino acid analogues alone, in the absence of MPO, were tested to rule out their microbicidal activity. […]
The effect of two-way combinations of individual amino acids with L-isoleucine, as potential enhancing agents, for MPO microbicidal action in the presence of blood, was therefore examined by following the procedure of Example 5.
The Actual CFU observed for the pair is then divided by the Predicted CFU and multiplied by 100 to calculate the % of Predicted value. This value is then to be compared to the threshold value, discussed in the next section, to determine whether the pair are synergistic, antagonistic, or additive.
Calculation of appropriate threshold values for determination of synergism and antagonism was based upon the variability of replicated CFU survivor measures.

[2] = system: Staphylococcus aureus; test: Control: microbicidal activity of the amino acid or analogue alone (no glucose, MPO, glucose oxidase) in the presence of blood; assay type: cell-based; settings: for log reduction at 5000 µM: Staphylococcus aureus, 1 h, read-out: Log Reduction 60 min
Source text: As a control to determine the microbicidal activity of the amino acids alone, the foregoing procedure was followed without replication, except in the absence of glucose, MPO, and glucose oxidase.

[3] = Table 7, amino acid analogue 5 mM, blood
[4] = amino acid analogue alone 5 mM, MPO 0, GO 0, no glucose, blood
[5] = MPO 100 μg/mL, AA 20 mM, 30 min
[6] = MPO 100 μg/mL, AA 20 mM, 60 min
[7] = Table 3, amino acid 5 mM (none: 0 mM), blood
[8] = Table 10, single amino acid 2.5 mM, in the presence of blood, 50 min
[9] = Table 11, single amino acid 2.5 mM, in the presence of blood, 50 min
[10] = Table 19, amino acid 3.5 mM, 50 min
[11] = single amino acid 2.5 mM, blood
[12] = amino acid alone 5 mM, MPO 0, GO 0, no glucose, blood, without replication
[13] = Table 5, amino acid 5 mM (none: 0 mM), blood
[14] = Table 19, amino acid (racemic, L- or D-form) 2.5 mM, 50 min
[15] = Table 2, amino acid 5 mM (none: 0 mM), blood
[16] = Table 13, single amino acid 2.5 mM, in the presence of blood, 50 min

SMILES | Log 10 (CFU + 1) Survivors ([1]; MPO 25 μg/mL, AA 5 mM, 30 min) | Log 10 (CFU + 1) Survivors ([1]; MPO 25 μg/mL, AA 5 mM, 60 min) | Log 10 (CFU + 1) Survivors ([1]; MPO 25 μg/mL, AA […], 30 min) | Log 10 (CFU + 1) Survivors ([1]; MPO 25 μg/mL, AA […], 60 min) | Log 10 (CFU + 1) Survivors ([1]; MPO 100 μg/mL, AA 5 mM, 30 min) | Log 10 (CFU + 1) Survivors ([1]; MPO 100 μg/mL, AA 5 mM, 60 min) | Log 10 (CFU + 1) Survivors [1, 5] | Log 10 (CFU + 1) Survivors [1, 6] | Average Viability CFU/ml 60 min [1, 7] [CFU/ml] | Log 10 (CFU + 1) Survivors 60 min [1, 7] | Log Reduction 60 min [1, 7] | Average Viability CFU/ml 50 min [1, 11] [CFU/ml] | Log Reduction 50 min [1, 11] | log reduction at 5000 µM [2, 12] | Average Viability CFU/ml 60 min [2, 12] [CFU/ml] | other results
COC(=O)CN.Cl [Glycine methyl ester hydrochloride] | – | – | – | – | – | – | – | – | – | – | – | – | – | – | – | Average Viability CFU/ml 60 min [1, 3]: 0 CFU/ml; Log Reduction 60 min [1, 3]: 7.4; log reduction at 5000 µM [2]: 0; Average Viability CFU/ml 60 min [2, 4]: 21100000 CFU/ml
CC(C)C[C@H](N)C(=O)O [L-Leucine] | 4.1 | 0.0 | 3.9 | 0.0 | 0.0 | 0.0 | 0.0 | 0.0 | 0 | 0.0 | 7.3 | 200500 | 2.1 | 0.1 | 18700000 | Average Viability CFU/ml 50 min [1, 8]: 214500 CFU/ml; Log Reduction 50 min [1, 8]: 2.1; Average Viability CFU/ml 50 min [1, 9]: 200500 CFU/ml; Log Reduction 50 min [1, 9]: 2.1; Average Viability CFU/ml 50 min [1, 10]: 204000 CFU/ml; Log Reduction 50 min [1, 10]: 2.1
CC(C)[C@@H](N)C(=O)O [D-Valine] | 4.1 | 0.0 | 6.7 | 0.0 | 0.0 | 0.0 | 0.0 | 0.0 | – | – | – | 630000 | 1.6 | 0.1 | 20900000 | Average Viability CFU/ml 60 min [1, 13]: 0 CFU/ml; Log Reduction 60 min [1, 13]: 7.4; Average Viability CFU/ml 50 min [1, 8]: 630000 CFU/ml; Log Reduction 50 min [1, 8]: 1.6; Average Viability CFU/ml 50 min [1, 14]: 630000 CFU/ml; Log Reduction 50 min [1, 14]: 1.6
CC(N)CC(=O)O (centres unmarked) [3-Aminobutanoic acid] | – | – | – | – | – | – | – | – | – | – | – | – | – | – | – | Average Viability CFU/ml 60 min [1, 3]: 9 CFU/ml; Log Reduction 60 min [1, 3]: 6.4; log reduction at 5000 µM [2, 4]: 0; Average Viability CFU/ml 60 min [2, 4]: 21300000 CFU/ml
N[C@@H](Cc1c[nH]c2ccccc12)C(=O)O [L-Tryptophan] | – | – | – | – | – | – | – | – | – | – | – | – | – | – | 21600000 | Average Viability CFU/ml 60 min [1, 15]: 21150000 CFU/ml; Log 10 (CFU + 1) Survivors 60 min [1, 15]: 7.3; Log Reduction 60 min [1, 15]: 0.1; log reduction at 5000 µM [2]: 0
C[C@@H](N)C(=O)O [D-Alanine] | 7.3 | 3.7 | 7.3 | 6.7 | 6.8 | 0.6 | 7.3 | 0.0 | 0 | 0.0 | 7.3 | – | – | 0 | 19600000 | Average Viability CFU/ml 50 min [1, 16]: 1900000 CFU/ml; Log Reduction 50 min [1, 16]: 1.1
CC(=O)C(=O)O [Pyruvic acid] | – | – | – | – | – | – | – | – | 4900000 | 6.7 | 0.6 | – | – | 0 | 22100000 | –
NCCS(=O)(=O)O [Taurine] | 7.3 | 7.0 | 7.3 | 7.1 | 7.3 | 5.0 | 7.3 | 5.1 | 830000 | 5.9 | 1.4 | – | – | 0 | 21600000 | –
CC[C@@H](C)[C@@H](N)C(=O)O [D-Isoleucine] | 0.0 | 0.0 | 6.0 | 1.1 | 0.0 | 0.0 | 0.0 | 0.0 | – | – | – | 196000 | 2.1 | 0.1 | 21300000 | Average Viability CFU/ml 60 min [1, 13]: 0 CFU/ml; Log Reduction 60 min [1, 13]: 7.4; Average Viability CFU/ml 50 min [1, 9]: 196000 CFU/ml; Log Reduction 50 min [1, 9]: 2.1; Average Viability CFU/ml 50 min [1, 14]: 196000 CFU/ml; Log Reduction 50 min [1, 14]: 2.1; CFU survivors, amino acid acting separately ([1]; standard conditions of Example 5 (2.5 μmol/mL; MPO 4.7 U/mL; GO 4.2 U/mL)): 196000 CFU
